This note sets out measurements from ChEMBL document CHEMBL1201862, “PubChem BioAssay data set” (2004).

A word on the IC50: it is the concentration needed to halve the response being measured.

The source made the active and inactive calls.

The target in assay [1] is T1, Rac GTPase-activating protein 1 (Homo sapiens, UniProt Q9H0H5).
T1 sequence (Q9H0H5 whole entry): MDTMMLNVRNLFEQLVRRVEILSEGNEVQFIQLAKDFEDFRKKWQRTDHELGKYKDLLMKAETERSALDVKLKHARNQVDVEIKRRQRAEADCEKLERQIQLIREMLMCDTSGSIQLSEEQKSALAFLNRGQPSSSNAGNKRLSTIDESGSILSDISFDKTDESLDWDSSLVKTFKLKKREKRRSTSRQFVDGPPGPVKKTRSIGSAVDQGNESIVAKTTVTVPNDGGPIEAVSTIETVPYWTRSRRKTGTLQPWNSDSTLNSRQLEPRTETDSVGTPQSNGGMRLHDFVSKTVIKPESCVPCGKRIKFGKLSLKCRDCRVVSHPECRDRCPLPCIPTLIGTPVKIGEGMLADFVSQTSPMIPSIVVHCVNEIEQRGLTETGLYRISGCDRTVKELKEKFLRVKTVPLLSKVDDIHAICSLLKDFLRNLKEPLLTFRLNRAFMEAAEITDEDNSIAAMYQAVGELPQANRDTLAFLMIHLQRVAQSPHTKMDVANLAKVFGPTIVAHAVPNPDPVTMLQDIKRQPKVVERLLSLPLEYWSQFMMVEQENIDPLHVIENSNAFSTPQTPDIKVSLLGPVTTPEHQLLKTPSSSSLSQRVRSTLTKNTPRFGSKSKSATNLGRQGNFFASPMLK
In words: MgcRacGAP GTPase-activating activity inhibitors, confirmation, biochemical, ADP Hunter fluorescence, primary and confirmatory (AID 624330). In kind it is functional.

Assay [2] addresses T2, Alkaline phosphatase, tissue-nonspecific isozyme (Homo sapiens, UniProt P05186).
T2 sequence (P05186 whole entry): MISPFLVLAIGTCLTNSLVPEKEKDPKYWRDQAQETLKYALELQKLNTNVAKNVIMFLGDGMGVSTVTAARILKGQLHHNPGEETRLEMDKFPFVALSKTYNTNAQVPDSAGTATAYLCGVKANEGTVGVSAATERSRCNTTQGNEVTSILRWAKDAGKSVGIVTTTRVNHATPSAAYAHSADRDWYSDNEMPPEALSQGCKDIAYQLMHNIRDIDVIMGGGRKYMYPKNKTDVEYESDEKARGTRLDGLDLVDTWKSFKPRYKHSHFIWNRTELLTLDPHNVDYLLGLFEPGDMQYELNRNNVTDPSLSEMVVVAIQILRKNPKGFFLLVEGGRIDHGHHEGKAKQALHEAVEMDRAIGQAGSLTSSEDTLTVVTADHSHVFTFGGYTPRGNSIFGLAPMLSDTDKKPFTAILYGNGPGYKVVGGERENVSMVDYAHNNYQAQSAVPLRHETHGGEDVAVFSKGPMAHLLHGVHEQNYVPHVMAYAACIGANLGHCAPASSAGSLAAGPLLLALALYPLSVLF
In words: TNAP enzyme inhibition by screening hits, dose response, selectivity assay for mouse IAP inhibitor project, biochemical, human TNAP, uHTS hits (AID 488906). In kind it is functional.

The target in another assay is T3, Aminopeptidase N (Plasmodium falciparum FcB1/Columbia, UniProt O96935).
T3 sequence (O96935 whole entry): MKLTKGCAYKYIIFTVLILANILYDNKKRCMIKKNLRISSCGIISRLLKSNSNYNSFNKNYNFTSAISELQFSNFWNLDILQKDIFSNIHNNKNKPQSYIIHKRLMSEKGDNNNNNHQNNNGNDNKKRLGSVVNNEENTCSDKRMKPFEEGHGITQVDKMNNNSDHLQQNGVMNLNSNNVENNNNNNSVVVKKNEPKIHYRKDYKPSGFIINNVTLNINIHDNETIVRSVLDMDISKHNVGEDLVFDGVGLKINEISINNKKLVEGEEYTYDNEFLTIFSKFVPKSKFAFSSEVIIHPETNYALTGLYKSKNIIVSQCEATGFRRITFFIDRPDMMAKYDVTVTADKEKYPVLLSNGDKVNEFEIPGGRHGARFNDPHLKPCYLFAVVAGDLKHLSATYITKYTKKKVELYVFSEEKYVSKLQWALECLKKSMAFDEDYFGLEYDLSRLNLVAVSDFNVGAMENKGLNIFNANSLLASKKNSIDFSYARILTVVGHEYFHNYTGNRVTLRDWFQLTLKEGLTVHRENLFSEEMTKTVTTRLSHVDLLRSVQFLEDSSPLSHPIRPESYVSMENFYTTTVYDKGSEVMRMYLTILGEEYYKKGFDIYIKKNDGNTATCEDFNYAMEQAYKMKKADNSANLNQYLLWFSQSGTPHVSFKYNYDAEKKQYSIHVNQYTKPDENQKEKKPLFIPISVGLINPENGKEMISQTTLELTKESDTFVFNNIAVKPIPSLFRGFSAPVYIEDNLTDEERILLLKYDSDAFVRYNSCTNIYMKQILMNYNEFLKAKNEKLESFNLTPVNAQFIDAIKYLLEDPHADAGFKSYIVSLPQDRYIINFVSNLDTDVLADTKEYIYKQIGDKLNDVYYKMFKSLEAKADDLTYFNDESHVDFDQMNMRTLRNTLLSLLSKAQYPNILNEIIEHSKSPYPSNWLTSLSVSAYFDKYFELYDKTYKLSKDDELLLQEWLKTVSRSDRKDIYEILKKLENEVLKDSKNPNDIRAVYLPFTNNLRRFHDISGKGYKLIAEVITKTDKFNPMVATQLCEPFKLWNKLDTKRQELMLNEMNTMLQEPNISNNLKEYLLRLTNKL
The assay can be described thus: P. falciparum M1AAP inhibitors, biochemical, fluorogenic H-Leu-NHMec substrate, 1536-well (AID 1445). Details: species or system Plasmodium falciparum 3D7, 3D7.

Turning to `O=C(O)c1cc(N2N=C(C(F)(F)F)/C(=C/C=C/c3ccco3)C2=O)ccc1Cl`, in assay [1], the IC50 was 10.6 µM (active). For `O=C(/C=C/c1ccco1)NC(=S)Nc1cccc(C(=O)O)c1`, in assay [2], the IC50 was 76.1 µM (active). On to `Cc1cc(C)c(S(=O)(=O)Nc2cc(SCC(=O)O)c(O)c3ccccc23)cc1C`, for which, at Aminopeptidase N, the half-inhibitory concentration (IC50) is 48.5 µM (active).
